Article PMC7555119, “Characterization of Novel Synthetic Polyphenols: Validation of Antioxidant and Vasculoprotective Activities” (Antioxidants, 2020)
Converted amounts (≈) assume the structure as drawn. “And” between values parts separate entries of the source, which are not always exact repeats. Equal entries are not always repeated. Where two headings read alike, the source gives them in different places.

Legend:
[1] = DPPH free radical scavenging assay (RSA); conditions: for RSA percentage: highest concentration 2 mM, 10 min; for concentration down to which RSA ability is maintained independently of time: 10 min to 2 h; for RSA capacity fold higher compared to resveratrol: after 10 min, from IC50
Description: For the 2,2′-diphenylpicrylhydrazyl (DPPH) assay, antioxidant compounds were dissolved in ethanol with a stock concentration of 4 mM and stirred for 24 h. DPPH (Alfa Aesar) was also dissolved in ethanol at 0.127 mM. Different compound solutions were prepared by serial dilutions of each stock solution ([…]). […] Amounts of 80 µL of each solution and 80 µL of DPPH were added in a 96-well plate. The absorbance was measured at different times (10, 20 and 30 min and 1 and 2 h) by a Multi-Detection Microplate Reader Synergy HT (λMAX = 515 nm). Radical scavenging activity (RSA, %) was calculated using Equation (1) (1) RSA(%)=ADPPH−AEXTRACT/ADPPH·100 where AEXTRACT and ADPPH correspond to the absorbance of DPPH with and without the extracts, respectively. Eight replicates were used for each compound and results were expressed as mean value ± standard deviation. The RSA half-maximal inhibitory concentration (IC50) values were calculated from the relationship curve of RSA versus concentrations by a non-linear fit using the software GraphPad Prism 7.

[2] = test system: human dermal fibroblasts (HDF); assay: Cell viability, AlamarBlue assay; assay type: cell-based; conditions: for IC50: 24 h, AlamarBlue, non-linear fit
Description: Cytotoxicity of selected antioxidant compounds was assessed using human dermal fibroblasts (HDF, Innoprot, P10856) and an AlamarBlue assay. Human fibroblasts were grown and maintained using Dulbecco’s Modified Eagle Medium high glucose (DMEM, Sigma Aldrich, D6171), supplemented with 10% Fetal Bovine Serum (FBS), 2% L-glutamine and 1% penicillin/streptomycin. Cells were incubated at 37 °C, 95% relative humidity and 5% CO2. Additionally, DMEM-high glucose, HEPES, no phenol red (Gibco, 2106329) was used to prepare the AlamarBlue solution. Stock solutions of the antioxidant compounds 3, 8, 15 and 17 were prepared in dimethyl sulfoxide (DMSO). Compound 7 was not soluble enough in DMSO to obtain a cell viability IC50 value. Serial dilutions of the antioxidant compounds were prepared using the previously mentioned stock solutions and DMEM. Final DMSO concentration was maintained lower than 1% v/v in the cell culture experiments. HDF were seeded at 9 × 10^4 cells/well in a 96-well plate and incubated for 24 h. The medium was replaced by the corresponding antioxidant solutions and incubated for an additional 24 h. Then, compounds were removed, cells were washed with Dulbecco’s Phosphate Buffered Saline (PBS, Sigma Aldrich) and treated with a 10% v/v AlamarBlue (Invitrogen) solution prepared in DMEM without phenol red. After 3 h of incubation, absorbance was monitored at 570 nm by a Multi-Detection Microplate Reader Synergy HT. Cells treated with DMEM without any antioxidant compound were used as the 100% viability control. Eight replicates were used for each antioxidant solution. IC50 values were obtained by a non-linear fit using the software GraphPad Prism 7.

[3] = Oxygen radical absorbance capacity (ORAC) assay
Description: The ORAC assay was performed following Ou et al., as modified by Garcés-Rimón et al.. All samples and reagents were dissolved in phosphate buffer (75 mM; pH 7.4). […] The fluorescence was recorded at 40 °C every 55 s for 95 min using a fluorimeter (SpectraMax M2; Molecular Devices, California, USA), with excitation and emission wavelengths of 480 and 520 nm, respectively. All samples were tested in triplicate. ORAC values were expressed as μmol of Trolox equivalents (TE)/μmol of pure compound.

[4] = Aqueous thermodynamic solubility in H2O (UV); assay type: physicochemical; conditions: water, thermodynamic from solid
Source text: 4) Log P and aqueous solubility of selected compounds.
Table S2. Theoretical Log P values and aqueous thermodynamic solubility measured for
Comp `Chemical Structure MW LogP Calc Aqueous Solubility a
a Thermodynamic solubility in H 2O (UV). […]

[5] = ABTS radical cation scavenging assay
Description: The 2,2′-azino-bis (3-ethylbenzothiazoline-6-sulfonic acid) diammonium salt (ABTS) assay was performed according to Re et al. and modified by Oki et al. for its use in microplates. Samples were diluted in methanol. An ABTS^•+ stock solution was prepared by adding 44 μL of potassium persulfate (140 mmol/L) to a 2.5 mL ABTS^•+ aqueous solution (7 mmol/L). The working solution of the radical ABTS^+ was prepared by diluting the stock solution 1:75 (v/v) in a sodium phosphate buffer (5 mmol/L, pH 7.4) to obtain an absorbance value of 0.7±0.02 at 734 nm. Samples (30 μL) were added to 270 μL of the working solution of ABTS^•+ in a microplate. Absorbance was measured at 734 nm and 30 °C for 20 min, every 5 min in a Synergy HT plate spectrophotometer (Biotek Instruments, Winoosky, VT, USA). A calibration curve was made with Trolox (20–250 μM). All samples were analyzed in triplicate. Results were expressed in μmol TE/μmol of pure compound, as for the ORAC assays.

[6] = test system: Saccharomyces cerevisiae strain BY4741; assay: In vivo antioxidant capacity in stressed yeasts (growth recovery, survivors); assay type: cell-based
Description: Saccharomyces cerevisiae haploid strain BY4741 was used as described previously. Briefly, 20 μL of glycerol stock culture was revived in 5ml of YPD medium (1% yeast extract, 2% bacteriological peptone and 2% dextrose) at 28 °C, with shaking (210 rpm). Fifty microliters of 20-h-old culture was used to inoculate fresh 5ml YPD (control medium) or 5 mL of oxidative stress medium (YPOxD: YPOxD; 1% yeast extract, 2% bacteriological peptone, 1% dextrose and 3% H2O2). Stress (and control) was conducted during 16h at 28 °C, with shaking (220 rpm).
Growth rate was determined from growth kinetics using the BioScreen C plate-reader system (OY Growth Curves Ab Ldt., Helsinki, Finland). Stressed yeast cultures (16 h old) were used to inoculate 200 µl of fresh media to an initial OD595 of 0.05–0.07, being distributed in 100-well honeycomb plates (Oy Growth Curves) in triplicate per each condition (each different dose of each compound). Plates were then incubated at 28 °C for 72h, with shaking (High force), taking OD measurement each 15 min in the Bioscreen C. Maximum growth rate (μmax) and biomass production (carrying capacity) were determined in R using ‘Growthcurver’ package version 0.3 [24]. Growth curves were constructed in EXCEL, represented as mean ± SEM (standard error of mean). […] In addition, to measure survival after oxidative stress and antioxidant effectiveness of each compound, yeast cells from each challenge were serially diluted in 96-well plates, and each dilution was spotted (with a 8 × 6 stainless steel replica platter from SIGMA) in triplicate to determine viable colonies after 24–48 h at 28 °C. Survivors (mean ± SEM) were compared between treatments with one-way ANOVA, Fisher’s LSD test, with alpha at 0.05 for significance.

[7] = Stability in aqueous media (H2O/acetonitrile 80:20, HPLC-MS); assay type: physicochemical; conditions: for stability in aqueous media: H2O/acetonitrile (80:20%), room temperature, checked for 60 days; for Aqueous Stability (%): remaining pure compound (HPLC) after two months at room temperature in aqueous solution (+20% acetonitrile)
Source text: The solutions were checked by HPLC-MS at regular intervals of time for 60 days. […] The rest of the compounds suffered progressive degradation, with complete disappearance from the solution after 10 or 20 days. The most unstable polyphenol derivatives were 4 and 10 (Figure S1), having both two p-dihydroxy substitutions in the phenyl rings, which points to the rapid and easy oxidation to the p-hydroquinone. From the four compounds with three phenyl rings, only one was stable in aqueous solution (17).

[8] = test system: NADPH oxidase activity in human microvascular endothelial cells (HMEC-1); assay: NADPH oxidase activity in endothelial cells stimulated with Angiotensin II; assay type: cell-based; conditions: HMEC-1, AngII 1 nmol/L 6 h, compound added 30 min before
Description: The human microvascular endothelial cells line (HMEC-1) (ATCC®, Middlesex, UK; CRL-3243™) was used. Cells were cultured according to the manufacturer instructions with MCDB131 medium (Corning, NY, USA, Cat. No. 702564) supplemented with 10 ng/mL epidermal growth factor (Sigma-Aldrich, Alcobendas, Spain), 1 μg/mL hydrocortisone (Sigma-Aldrich), 10 mmol/L glutamine (Sigma-Aldrich), 10% fetal bovine serum (FBS, Sigma-Aldrich), 100 U/mL of penicillin and 100 µg/mL of streptomycin. At 80% confluence, cells were serum-deprived for 24 h before stimulation. HMEC were treated with AngII (1 nmol/L for 6 h; Sigma-Aldrich) in the absence or in the presence of the different compounds that were added 30 min before stimulation.
(§1) The O2 production generated by NADPH oxidase was determined by a chemiluminescence assay. Briefly, endothelial cells or aortic segments were homogenized in phosphate buffer (50 mmol/L KH2PO4, 1 mmol/L EGTA, 150 mmol/L sucrose, pH 7.4). The reaction was started by the addition of a lucigenin (5 μmol/L) and NADPH (100 μmol/L; Sigma-Aldrich) mixture to the protein sample in a final volume of 250 μL. Chemiluminescence was determined every 2.4 s for 3 min in a microtiter plate luminometer (Enspire Perkin Elmer). Basal activity in the absence of NADPH was subtracted from each reading and normalized to protein concentration. Data were normalized vs. control situation.

[9] = test system: NADPH oxidase activity in segments of aorta from C57BL6/J mice; assay: NADPH oxidase activity in aortic segments stimulated ex vivo with IL-1β; conditions: IL-1β 10 ng/mL 6 h
Description: Aortic segments from three-month-old C57BL6/J mice were incubated with IL-1β (10 ng/mL, 6 h, Sigma Aldrich) in the presence and in the absence of the different compounds that were added 30 min before stimulation.
as §1

[10] = compound needed to reach 50% RSA after 10 min, read-out: DPPH PSA IC50 10 min
[11] = read-out: DPPH PSA IC50 2 h, compound needed to reach 50% RSA after 2 h

| melting point | IC50 [1, 10] [µM] | IC50 [1, 11] [µM] | solubility [4] [µg/mL] | stability in aqueous media [7] | Aqueous Stability (%) [7] [%] | SMILES | RSA percentage [1] [%] | IC50 [2] | IC50 ([2]; Homo sapiens, Fibroblast) [µM] | ORAC [3] | ORAC ([3]; TE: Trolox Equivalents) [TE] | ABTS [5] | effect on NADPH oxidase activity induced by Angiotensin II [8] | concentration down to which RSA ability is maintained independently of time [1] [mM] | RSA capacity fold higher compared to resveratrol [1] [fold] | ABTS (values in text) [5] [TE] | effect on NADPH oxidase activity induced by IL-1β [9] | further results |
| --- | --- | --- | --- | --- | --- | --- | --- | --- | --- | --- | --- | --- | --- | --- | --- | --- | --- | --- |
| 192 to 194 °C | 24.1 | 23.3 | 3100 ± 100 (≈ 12 mM) | sufficiently stable | 90 | O=C(Cc1ccc(O)c(O)c1)Nc1ccc(O)cc1 [Compound 7, 2-(3′,4′-Dihydroxyphenyl)-N-(4-hydroxyphenyl)acetamide] | 82 |  |  | 19.2 ± 0.4 µmol of trolox/µmol of pure compound and 19.2 ± 0. µmol of trolox/µmol of pure compound | > 19 | 8.12 ± 0.09 µmol of trolox/µmol of pure compound | decreasing NADPH oxidase activity levels in the same order as resveratrol | 0.063 | 2.8 | 8.1 | significant inhibition of the IL-1β effects | cytotoxic effects ([2]; range where soluble in DMSO (up to 6 mM)): did not show any significant cytotoxic effects |
| 185 to 187 °C (dec.) | 8.3 | 6.77 | 1300 ± 100 (≈ 5.01 mM) | sufficiently stable | 77 | O=C(Cc1cc(O)ccc1O)Nc1ccc(O)cc1 [Compound 3, 2-(2′,5′-Dihydroxyphenyl)-N-(4-hydroxyphenyl)acetamide] | ~78 | 246 µM and 240 µM | 246 | 19.2 ± 0.2 µmol of trolox/µmol of pure compound | > 19 | 3.27 ± 0.1 µmol of trolox/µmol of pure compound | decreasing NADPH oxidase activity levels in the same order as resveratrol | 0.031 | 8 | 3.2 | significant inhibition of the IL-1β effects | RSA ([1]; 0.031 mM, maintained from 10 min to 2 h): 78%; cell viability IC50 fold lower than compounds 17 and 8 [2]: 5–7 fold |

| SMILES | melting point | IC50 [1, 10] [µM] | IC50 [1, 11] [µM] | solubility [4] [µg/mL] | stability in aqueous media [7] | Aqueous Stability (%) [7] [%] | RSA percentage [1] [%] | IC50 [2] | IC50 ([2]; Homo sapiens, Fibroblast) [µM] | ORAC [3] | ORAC ([3]; TE: Trolox Equivalents) [TE] | ABTS [5] | effect on NADPH oxidase activity induced by Angiotensin II [8] | concentration down to which RSA ability is maintained independently of time [1] [mM] | RSA capacity fold higher compared to resveratrol [1] [fold] | ABTS (values in text) [5] [TE] | effect on NADPH oxidase activity induced by IL-1β [9] | further results |
| --- | --- | --- | --- | --- | --- | --- | --- | --- | --- | --- | --- | --- | --- | --- | --- | --- | --- | --- |
| O=C(Cc1ccc(O)cc1O)Nc1ccc(O)cc1 [Compound 8, 2-(2′,4′-Dihydroxyphenyl)-N-(4-hydroxyphenyl)acetamide] | 186 to 189 °C | 151 | 64.2 | 4100 ± 100 (≈ 15.8 mM) | sufficiently stable | 98 | 67 | > 1400 µM | 1410 | 19.3 ± 0.5 µmol of trolox/µmol of pure compound | > 19 | 5.00 ± 0.09 µmol of trolox/µmol of pure compound |  |  |  |  |  | growth rate (r) recovery of stressed yeast ([6]; H2O2-stressed BY4741, doses 2, 20 and 40 μg): dose-related antioxidant effect; carrying capacity (k) recovery of stressed yeast ([6]; H2O2-stressed BY4741, each dose tested): able to recover the carrying capacity of yeast cells similarly as control antioxidants |
